Test results taken from patent US8703195B2, “Method for solubilising, dispersing and stabilising of substances, products manufactured according to the method as well as the use thereof” (Biorem AG, priority 2006, dated 2014).
Where two headings read alike, the source gives them in different places.

Legend:
[1] = dissolved in water; cited from earlier work
[2] = cited from earlier work
[3] = unformulated active agent, in practice; cited from earlier work
[4] = Bioavailability of coenzyme Q10; format: in vivo; details: oral administration, solubilised with poloxamer and resin or tocopherol by this method
[5] = pH 5; cited from earlier work

Question: For O=C1O[C@H]([C@@H](O)CO)C(O)=C1O [Vitamin C, ascorbic acid], which “time until solution in water becomes light yellow” value [1] is on record?
Answer: The value was 2 to 3 days.

Question: Which results are given for COC1=C(OC)C(=O)C(C/C=C(\C)CC/C=C(\C)CC/C=C(\C)CC/C=C(\C)CC/C=C(\C)CC/C=C(\C)CC/C=C(\C)CC/C=C(\C)CC/C=C(\C)CCC=C(C)C)=C(C)C1=O [coenzyme Q10]?
Answer: solubility in water [2]: not water-soluble; bioavailability [3]: 10%; bioavailability [4]: about 85%

Question: With Abamectin as the compound, how does the “stability against hydrolysis in aqueous solutions” value [5] read?
Answer: The value was “stable”.
